Earlier results in patent US20170071955A1, “METHOD OF STABILIZING WEIGHT AFTER A WEIGHT-LOSS DIET USING PHYTOECDYSONES” (BIOPHYTIS SA, priority 2011, published 2017).

Details: mammals on a fattening hypercaloric diet

## CC(C)(O)CC[C@@H](O)[C@](C)(O)[C@H]1CC[C@@]2(O)C3=CC(=O)[C@@H]4C[C@@H](O)[C@@H](O)C[C@]4(C)[C@H]3CC[C@]12C [20-hydroxyecdysone]
  effect on body fat: reduce the increase of body fat
